This is an account of results in patent US9011910B2, “Implantable tizanidine compositions and methods of treatment thereof” (Endo Pharmaceuticals Solutions Inc., priority 2011, dated 2015).

For data set [1] the following is noted: 2% stearic acid; for in vitro elution rate: nine pellets, 100 mL PBS at 37° C.; for release rate: about 250 mg API, up to 36 weeks. From the text:
In one embodiment of the present invention, tizanidine is delivered to the subject at a target range of about 100 micrograms/day to about 10,000 micrograms/day. For example, tizanidine is delivered to the subject at a target range of about 100 to about 5,000 micrograms/day, or about 200 to about 4,000 micrograms per day, or about 300 to about 3,000 micrograms per day or about 400 to about 2,000 micrograms per day. The testing method set forth in the examples to determine the elution rates for compositions comprising tizanidine includes placing the implants in an elution bath consisting of PBS or 0.9% saline at 37° C. Weekly exchanges of the elution media are then analyzed by HPLC for the durations given.
The implants were sterilized by gamma irradiation and placed in an elution bath consisting of 100 mL PBS at 37° C.
A discrete solid dosage form was prepared as follows. The drug implants were manufactured using PEBAX® 2533 and PEBAX® 3533, as the tubing material and tizanidine free base as the API. […] A total of about 250 mg tizanidine free base were loaded into the implant with 10% croscarmellose and 2% stearic acid. The implant were sterilized by gamma irradiation and placed in an elution batch consisting of 200 mL 0.9% saline at 37° C.
A discrete solid dosage form was prepared as follows. Various polyurethanes were used as the tubing material (i.e., TECOFLEX® EG-80A, TECOFLEX® EG-85A, TECOFLEX® EG-93A, TECOPHILIC® HP-60D-05, and TECOPHILIC® HP-60D-10 polyurethanes) and tizanidine hydrochloride as the API. […] A total of about 380 mg tizanidine hydrochloride were loaded into the implant with 10% croscarmellose and 2% stearic acid. The implants were sterilized by gamma irradiation and placed in an elution batch consisting of 200 mL PBS at 37° C. Weekly exchanges of the elution media were analyzed by HPLC over 5 weeks.
The drug implants were manufactured as described in Example 3, except tizanidine free base was used as the API instead of tizanidine HCl. […] A total of about 250 mg tizanidine free base were loaded into the implants with 10% croscarmellose and 2% stearic acid. The implants were sterilized by gamma irradiation and placed in an elution batch consisting of 200 mL PBS at 37° C. Weekly exchanges of the elution media were analyzed by HPLC for up to 36 weeks.

For data set [2] the following is noted: oral dosage form, approximate; cited from earlier work.

Where a name gives a salt, the structure may show the parent alone. Read-outs that look alike come from different tables or passages of the source.

For the molecule `Clc1ccc2nsnc2c1NC1=NCCN1` [tizanidine HCl, tizanidine hydrochloride], the “drug release from the implants (elution rate in vitro)” value in data set [1] (all polyurethanes investigated (TECOFLEX EG-80A, EG-85A, EG-93A, TECOPHILIC HP-60D-05, HP-60D-10), about 380 mg API, 10% croscarmellose, 200 mL PBS at 37° C., 5 weeks) is “below 100 μg per day”. The oral bioavailability in data set [2] is on record as 20-40%.

With `Clc1ccc2nsnc2c1NC1=NCCN1` [tizanidine free base, 5-chloro-N-(4,5-dihydro-1H-imidazol-2-yl)benzo[c][1,2,5]thiadiazol-4-amine], the “in vitro elution rate” value is “about 1,200 μg/day” in data set [1] (TECOFLEX EG-80A implant, 5% croscarmellose, 405 mg API, week 2); “about 900 μg/day” in data set [1] (TECOFLEX EG-80A implant, 5% croscarmellose, 405 mg API, week 27); “about 1,400 μg/day” in data set [1] (TECOFLEX EG-80A implant, 15% croscarmellose, 360 mg API, week 2); “about 1,250 μg/day” in data set [1] (TECOFLEX EG-80A implant, 15% croscarmellose, 360 mg API, week 27). Further, the release rate result in data set [1] (TECOFLEX EG-80A implant, 10% croscarmellose, 200 mL PBS at 37° C.) is reported as “about 900 μg per day”; in data set [1] (TECOFLEX EG-93A implant, 10% croscarmellose, 200 mL PBS at 37° C.), “about 100 μg per day”.
